Source: US20190054103A1, “METHOD OF TREATMENT OF TP53 WILD-TYPE TUMORS WITH 2',2'-DIFLUORO-5-AZA-2'-DEOXYCYTIDINE OR PRODRUGS THEREOF” (priority 2016, published 2019)

How the values were obtained:
A549/ATCC = assay: NCI 60 Cell Line Panel growth inhibition; assay type: cell-based, human; settings: Lung-NSCL, TP53 wild type
Text: (§1) The NCI-60 Cell Line Panel was assembled by the National Cancer Institute as an in vitro anticancer drug screen. The panel comprises human cancer cell lines representing nine different tissues of origin: breast, colon, central nervous system, renal, lung, melanoma, ovarian, prostate, and hematogenous. […] See, e.g., Leroy et al. “Analysis of TP53 Mutation Status in Human Cancer Cell Lines: a Reassesment” Hum Mutat 2014 35(6): 756-765.

ACHN = assay: NCI 60 Cell Line Panel growth inhibition; assay type: cell-based, human; settings: Renal cancer, TP53 wild type
Text: as §1

BT-549 = assay: NCI 60 Cell Line Panel growth inhibition; assay type: cell-based, human; settings: BT-549, Breast cancer, TP53 null/mutant
Text: as §1

CAKI-1 = assay: NCI 60 Cell Line Panel growth inhibition; assay type: cell-based, human; settings: CAKI-1, Renal cancer, TP53 wild type
Text: as §1

DU-145 = assay: NCI 60 Cell Line Panel growth inhibition; assay type: cell-based, human; settings: DU-145, Prostate cancer, TP53 null/mutant
Text: as §1

HCC-2998 = assay: NCI 60 Cell Line Panel growth inhibition; assay type: cell-based, human; settings: HCC-2998, Colon cancer, TP53 null/mutant
Text: as §1

HCT-116 = assay: NCI 60 Cell Line Panel growth inhibition; assay type: cell-based, human; settings: HCT-116, Colon cancer, TP53 wild type
Text: as §1

HCT-15 = assay: NCI 60 Cell Line Panel growth inhibition; assay type: cell-based, human; settings: HCT-15, Colon cancer, TP53 null/mutant
Text: as §1

HL-60 = assay: NCI 60 Cell Line Panel growth inhibition; assay type: cell-based, human; settings: HL-60, Leukemia, TP53 null/mutant
Text: as §1

M14 = assay: NCI 60 Cell Line Panel growth inhibition; assay type: cell-based, human; settings: M14, Melanoma, TP53 null/mutant
Text: as §1

MCF7 = assay: NCI 60 Cell Line Panel growth inhibition; assay type: cell-based, human; settings: MCF7, Breast cancer, TP53 wild type
Text: as §1

NCI-H226 = assay: NCI 60 Cell Line Panel growth inhibition; assay type: cell-based, human; settings: NCI-H226, Lung-NSCL, TP53 null/mutant
Text: as §1

NCI-H23 = assay: NCI 60 Cell Line Panel growth inhibition; assay type: cell-based, human; settings: NCI-H23, Lung-NSCL, TP53 null/mutant
Text: as §1

NCI-H322M = assay: NCI 60 Cell Line Panel growth inhibition; assay type: cell-based, human; settings: Lung-NSCL, TP53 null/mutant
Text: as §1

NCI-H460 = assay: NCI 60 Cell Line Panel growth inhibition; assay type: cell-based, human; settings: NCI-H460, Lung-NSCL, TP53 wild type
Text: as §1

NCI-H522 = assay: NCI 60 Cell Line Panel growth inhibition; assay type: cell-based, human; settings: NCI-H522, Lung-NSCL, TP53 null/mutant
Text: as §1

NCI/ADR-RES = assay: NCI 60 Cell Line Panel growth inhibition; assay type: cell-based, human; settings: Ovarian cancer, TP53 null/mutant
Text: as §1

OVCAR-4 = assay: NCI 60 Cell Line Panel growth inhibition; assay type: cell-based, human; settings: OVCAR-4, Ovarian cancer, TP53 null/mutant
Text: as §1

PC-3 = assay: NCI 60 Cell Line Panel growth inhibition; assay type: cell-based, human; settings: PC-3, Prostate cancer, TP53 null/mutant
Text: as §1

RXF 393 = assay: NCI 60 Cell Line Panel growth inhibition; assay type: cell-based, human; settings: RXF 393, Renal cancer, TP53 null/mutant
Text: as §1

SF-268 = assay: NCI 60 Cell Line Panel growth inhibition; assay type: cell-based, human; settings: SF-268, CNS cancer, TP53 null/mutant
Text: as §1

SF-295 = assay: NCI 60 Cell Line Panel growth inhibition; assay type: cell-based, human; settings: SF-295, CNS cancer, TP53 null/mutant
Text: as §1

SK-MEL-5 = assay: NCI 60 Cell Line Panel growth inhibition; assay type: cell-based, human; settings: SK-MEL-5, Melanoma, TP53 wild type
Text: as §1

SK-OV-3 = assay: NCI 60 Cell Line Panel growth inhibition; assay type: cell-based, human; settings: SK-OV-3, Ovarian cancer, TP53 null/mutant
Text: as §1

TK-10 = assay: NCI 60 Cell Line Panel growth inhibition; assay type: cell-based, human; settings: TK-10, Renal cancer, TP53 null/mutant
Text: as §1

UACC-257 = assay: NCI 60 Cell Line Panel growth inhibition; assay type: cell-based, human; settings: UACC-257, Melanoma, TP53 wild type
Text: as §1

UACC-62 = assay: NCI 60 Cell Line Panel growth inhibition; assay type: cell-based, human; settings: UACC-62, Melanoma, TP53 wild type
Text: as §1

NCI 60 Cell Line Panel = assay: NCI 60 Cell Line Panel, summary by TP53 status (2×2 contingency tables); assay type: cell-based, human
Text: as §1

[1] = test system: TP53 WT colon cancer cell line Ls174T; assay: CellTiter-Glo growth inhibition, Ls174T; assay type: cell-based; settings: Homo sapiens, 72-hour exposure, FIG. 1
Protocol: Two examples of additional comparisons are provided below for colon cancer cell lines (TP53 WT colon cancer cell line Ls174T and TP53 WT colon cancer cell line LoVo).
In these assays, two 96 well plates of each cell line were seeded with 5,000 cells per well in a total volume of […] per well and left incubating overnight. The following day, the cells were exposed to different concentrations of NUC013. At the end of a 72-hour exposure period, the plates were removed for CellTiter-Glo® assay. Luminescence was recorded on a Synergy 4.0.

CFPAC-1 = assay: Growth inhibition of pancreatic cancer cell line CFPAC-1; assay type: cell-based; settings: Homo sapiens
[2] = NUC013 administered IV to mice
in vivo = settings: nude, mouse, iv
[3] = test system: LoVo (colon cancer, TP WT); assay: Xenograft model, nude mice implanted with LoVo; settings: for mean tumor volumes compared to saline control: study days 9 through 51, FIG. 3B
[4] = TP53 (WT) cell lines of NCI 60 cell panel
[5] = TP53 (null/mutant) cell lines of NCI 60 cell panel

## Nc1ncn([C@@H]2O[C@H](CO)[C@@H](O)C2(F)F)c(=O)n1 [NUC013, 4-amino-1-((2R,4R,5R)-3,3-difluoro-4-hydroxy-5-(hydroxymethyl)tetrahydrofuran-2-yl)-1,3,5-triazin-2(1H)-one]
A549/ATCC
  Growth (%) at 10 μM: 37.91%
ACHN
  Growth (%) at 10 μM: 7.28%
BT-549
  Growth (%) at 10 μM: 53.63%
CAKI-1
  Growth (%) at 10 μM: 27.86%
DU-145
  Growth (%) at 10 μM: 43.48%
HCC-2998
  Growth (%) at 10 μM: 60.44%
HCT-116
  Growth (%) at 10 μM: 29.84%
HCT-15
  Growth (%) at 10 μM: 52.19%
HL-60
  Growth (%) at 10 μM: 25.23%
M14
  Growth (%) at 10 μM: 15.55%
MCF7
  Growth (%) at 10 μM: 20.74%
NCI-H226
  Growth (%) at 10 μM: 52.34%
NCI-H23
  Growth (%) at 10 μM: 30.61%
NCI-H322M
  Growth (%) at 10 μM: 70.00%
NCI-H460
  Growth (%) at 10 μM: 9.34%
NCI-H522
  Growth (%) at 10 μM: 86.91%
NCI/ADR-RES
  Growth (%) at 10 μM: 42.13%
OVCAR-4
  Growth (%) at 10 μM: 94.88%
PC-3
  Growth (%) at 10 μM: 63.57%
RXF 393
  Growth (%) at 10 μM: 44.97%
SF-268
  Growth (%) at 10 μM: 65.39%
SF-295
  Growth (%) at 10 μM: 77.93%
SK-MEL-5
  Growth (%) at 10 μM: 70.84%
SK-OV-3
  Growth (%) at 10 μM: 71.09%
TK-10
  Growth (%) at 10 μM: 91.13%
UACC-257
  Growth (%) at 10 μM: 77.54%
UACC-62
  Growth (%) at 10 μM: 47.29%
NCI 60 Cell Line Panel; Homo sapiens, 60 cell, 10 μM, read-out: Inhibition of growth of hematogenous tumor cell lines
  inhibition at 10 µM: > 50%
NCI 60 Cell Line Panel; [4]
  Number of cell lines with >50% growth inhibition at 10 μM: 11
  Number of cell lines with ≤50% growth inhibition at 10 μM: 4
NCI 60 Cell Line Panel; [5]
  Number of cell lines with >50% growth inhibition at 10 μM: 13
  Number of cell lines with ≤50% growth inhibition at 10 μM: 27
[1]
  GI50: 1.3 µM
CFPAC-1
  GI50: 53.8 µM
[2]
  half-life: 20 min
In vivo
  MTD at 3 weeks: > 120 mg/kg
[3]; 5.8 mg/kg
  survival compared to saline controls: no difference in survival
[3]; 5.8 mg/kg, 8 days following the end of treatment
  mean tumor weight lower compared to controls: 24.3%
[3]; 20 mg/kg
  mean tumor volumes compared to saline control: significantly lower
[3]; 40 mg/kg
  mean tumor volumes compared to saline control: significantly lower
